# Measured values from patent publication US9018251B2, “Method for treating brain cancer or reducing temozolomide-resistance of brain cancer cells” (China Medical University, priority 2011, dated 2015).
# Like-named read-outs stand apart in the source and are kept apart here.
# Legend:
# MGMT [1] = assay: MGMT RNA expression (RT-PCR, gel electrophoresis) in 8901; format: cell-based; conditions: as concentration increased, treated 3 to 48 hours, FIG. 3
# Protocol: (§1) Brain cancer cell lines 8901 and GBM22-TMZ with temozolomide-resistance were cultured in a petri dish with a diameter of 10 cm, respectively. A PBS solution was used to rinse the cells after the cell proliferation reached to 60% by volume of the dish. (Z)-butylidenephthalide or (E)-butylidenephthalide was added to treat the cells for 3 to 48 hours, and then the cells were collected. The total RNA of the cells was extracted and reverse transcribed into cDNA (using 50 micro-mole of […] and 50 pico-mole of random hexamers primer). One unit of ExTaq DNA polymerase, 200 nM dNTP (1 μL), and 2.5 mM of MgCl2 (1 μL) were added, and then 20 mM of MGMT nucleotide primers (1 μL each) and 50 μL of water were added.
# The sample was placed into a polymerase chain reaction (PCR) system (GeneAmp PCR System 2400, Perkin Elmer, USA). The condition was set as: denaturing, 94° C., 30 s; annealing, 55° C., 30 s; extension, […]; 30 cycles; and finally 72° C., 10 minutes. Afterwards, the system temperature was decreased to 4° C. to terminate the reaction. The product from the PCR was analysed by a 1.5% gel electrophoresis. The gel was analysed by Fluoro-Chem imaging system (Alpha InnoTech Cooperation) to determine the expression level of MGMT gene.
# MGMT [2] = assay: MGMT protein expression (SDS-PAGE, western blotting) in 8901; format: cell-based; conditions: as concentration increased, treated 3 to 48 hours, FIG. 4
# Protocol: as §1
# (§2) In another aspect, the intracellular proteins of the aforesaid brain cancer cell lines 8901 and GBM22-TMZ were collected. SDS-PAGE and western blotting were used to analyze the expression of the MGMT protein in the brain cancer cell lines.
# [3] = system: brain cancer cell line DBTRG; assay: MTT cell viability assay, DBTRG; format: cell-based; conditions: for viability at 500 µM: Concentration 500 μM; for IC50: 48 h, read-out: IC50 value
# Protocol: (§3) The MTT (3-[4,5-dimethylthiahiazo-2-yl]-2,4-dipheny-tetrazolium bromide) cell viability assay was used to study the mortality effect of temozolomide to various brain cancer cell lines. (See Pauwels et al., J. Virol. Methods, 1988, 20, 309-321 for the MTT cell viability assay, which is incorporated hereinto by reference).
# The cell viability rate and mortality rate were calculated based on the absorbance.
# [4] = system: brain cancer cell line GBM22-TMZ; assay: In vivo survival analysis, glioblastoma orthotopic xenografts; set-up: species or system Mice
# Protocol: A survival analysis was carried out to investigate the antiglioma effect of the combination of (Z)-butylidenephthalide and temozolomide in vivo. Mice with established glioblastoma orthotopic xenografts from brain cancer cell line GBM22-TMZ were randomized to carry out the therapy with indicated temozolomide (66 mg/kg/day; 5 days), (Z)-butylidenephthalide (50 or 100 mg/kg/day; 5 days), or combinations thereof. Observation was recorded until the mice reached a moribund state, and survival results are shown as Kaplan-Meier survival curves.
# [5] = system: brain cancer cell line GBM22-TMZ; assay: MTT cell viability assay, GBM22-TMZ (with CalcuSyn combination index); conditions: Homo sapiens, 48 h
# Protocol: In a 96-microwell plate, each well was cultured with 3×10^3 cells of brain cancer cell line 8901 which have temozolomide-resistance. The next day, different concentrations of temozolomide (0 to 1200 μM, 200 μL) or the combination of temozolomide and (Z)-butylidenephthalide (0 to 200 μM, 200 μL) were dropped into the well along the interior wall of the plate. Four microwell plates were used for each analysis, and four wells were used for each combination of various drug concentrations. A solvent was placed into the first row as the control group. After the cells were cultured for 2 days, the culture solution was drawn and discarded, and a culture solution containing 500 μg/mL of MTT (200 μL) was added to culture for another 4 hours. The culture solution was drawn and discarded, and 200 μL of DMSO was added, and then the microwell plate spectrometer was used to measure the absorbance of the cells at a wavelength of 570 nm. The cell viability rate and mortality rate and the concentrations of temozolomide that reached the mortality rate of 50% of various brain cancer cell lines (IC50) were calculated based on the absorbance.
# In a 96-microwell plate, each well was cultured with 3×10^3 cells of brain cancer cell line 8901 or GBM22-TMZ with temozolomide-resistance. […] The microwell plate spectrometer was then used to measure the absorbance of the cells at a wavelength of 570 nm. […]
# [6] = system: brain cancer cell line 8401; assay: MTT cell viability assay, 8401; format: cell-based
# Text: as §3
# [7] = system: brain cancer cell line 8901; assay: MTT cell viability assay, 8901 (with CalcuSyn combination index); format: cell-based; conditions: for IC50: 48 h, single agent, cultured 2 days, MTT
# Text: as §3
# [8] = system: brain cancer cell line GBM22-TMZ; assay: In vivo subcutaneous tumor transplant test; set-up: species or system Balb/c nude mice; conditions: 28th day
# Protocol: An in vivo test was carried out by a subcutaneous tumor transplant mode to observe the anti-tumor activity of (Z)-butylidenephthalide, temozolomide, or their combination in vivo.
# First, 2×10^6 cells of brain cancer cell line GBM22-TMZ with temozolomide-resistance were cultured sterilely and subcutaneously injected to Balb/c nude mice (purchased from the National Laboratory Animal Center, Taiwan) to carry out the in vivo tumor transplant experiment. When the tumor was grown to 100 mm^3 (length×width×width/2), the subcutaneous administration was carried out for treatment. On the contralateral side of the tumor tissue, at a position more than 1.5 cm, (Z)-butylidenephthalide was injected, or temozolomide was orally administrated, once per day consecutively for 5 days. In the treatment group in which (Z)-butylidenephthalide and temozolomide were administrated in combination, (Z)-butylidenephthalide was first subcutaneously administrated (SC), and 2 hours later, temozolomide was orally administrated (PO). After administration on the 5th day, the tumor size and the body weight of the mice were observed continuously for 28 days, and were measured every 3 days. The measurement value of the tumor size on the 28th day was used as the assessment result of the inhibiting activity on tumor growth. The smaller the value, the better the inhibition effect. […] There was a significant difference when P value was less than […]. The results are shown in Table 7, and FIGS. 11A and 11B.
# [9] = system: brain cancer cell line G5T/VGH; assay: MTT cell viability assay, G5T/VGH; format: cell-based
# Text: as §3
# MGMT [10] = assay: MGMT protein expression (SDS-PAGE, western blotting) in GBM22-TMZ; format: cell-based, human; conditions: as concentration increased, FIG. 5
# Protocol: as §1, §2
# [11] = read-out: Viability rate of DBTRG(%)
# [12] = 48 h, single agent, cultured 2 days, MTT
compound,measurement,setting,value
"CCC/C=C1/OC(=O)c2ccccc21 [(E)-butylidenephthalide, reference compound]",expression of RNA of MGMT,MGMT [1],no significant changes
same,expression of proteins of MGMT,MGMT [2],no significant changes
same,viability at 500 µM,[3]; [11],88%
same,viability at 1500 µM,"[3]; Concentration 1500 μM, read-out: Viability rate of DBTRG(%)",81%
same,viability at 2500 µM,"[3]; Concentration 2500 μM, read-out: Viability rate of DBTRG(%)",70%
same,killing of brain cancer cells,"[3]; DBTRG, high dosage of 2500 μM",cannot kill brain cancer cells effectively
CCC/C=C1\OC(=O)c2ccccc21 [(Z)-butylidenephthalide],expression of RNA of MGMT,MGMT [1],reduced
same,Survival rate,"[4]; (Z)-butylidenephthalide (50 mg/kg), Day 0",100%
same,Survival rate,"[4]; (Z)-butylidenephthalide (50 mg/kg), Day 5",100%
same,Survival rate,"[4]; (Z)-butylidenephthalide (50 mg/kg), Day 8",100%
same,Survival rate,"[4]; (Z)-butylidenephthalide (50 mg/kg), Day 11",100%
same,Survival rate,"[4]; (Z)-butylidenephthalide (50 mg/kg), Day 14",100%
same,Survival rate,"[4]; (Z)-butylidenephthalide (50 mg/kg), Day 18",100%
same,Survival rate,"[4]; (Z)-butylidenephthalide (50 mg/kg), Day 21",66%
same,Survival rate,"[4]; (Z)-butylidenephthalide (50 mg/kg), Day 28",0%
same,Survival rate,"[4]; (Z)-butylidenephthalide (50 mg/kg), Day 30",0%
same,Survival rate,"[4]; (Z)-butylidenephthalide (100 mg/kg), Day 0",100%
same,Survival rate,"[4]; (Z)-butylidenephthalide (100 mg/kg), Day 5",100%
same,Survival rate,"[4]; (Z)-butylidenephthalide (100 mg/kg), Day 8",100%
same,Survival rate,"[4]; (Z)-butylidenephthalide (100 mg/kg), Day 11",100%
same,Survival rate,"[4]; (Z)-butylidenephthalide (100 mg/kg), Day 14",100%
same,Survival rate,"[4]; (Z)-butylidenephthalide (100 mg/kg), Day 18",100%
same,Survival rate,"[4]; (Z)-butylidenephthalide (100 mg/kg), Day 21",66%
same,Survival rate,"[4]; (Z)-butylidenephthalide (100 mg/kg), Day 28",0%
same,Survival rate,"[4]; (Z)-butylidenephthalide (100 mg/kg), Day 30",0%
same,expression of proteins of MGMT,MGMT [2],reduced
same,IC50,[3],~250 µM
same,viability at 125 µM,"[3]; Concentration 125 μM, read-out: Viability rate of DBTRG(%)",80%
same,viability at 250 µM,"[3]; Concentration 250 μM, read-out: Viability rate of DBTRG(%)",58%
same,viability at 500 µM,[3]; [11],30%
same,growth inhibition of brain cancer cell line,"[3]; DBTRG, 0 to 400 μM, FIG. 10",effectively inhibit the growth
same,IC50,[5],451 µM
same,growth inhibition of brain cancer cell line,"[6]; 0 to 400 μM, FIG. 10",effectively inhibit the growth
same,growth inhibition of brain cancer cell line,"[7]; 0 to 400 μM, FIG. 10",effectively inhibit the growth
same,IC50,[7],219 µM
same,Relative tumor size (fold),"[8]; SC consecutively for 5 days, 50 mg/kg/day",2.7 fold
same,Relative tumor size (fold),"[8]; SC consecutively for 5 days, 100 mg/kg/day",2.6 fold
same,growth inhibition of brain cancer cell line,"[9]; 0 to 400 μM, FIG. 10",effectively inhibit the growth
same,expression of proteins of MGMT,MGMT [10],reduced
Cn1nnc2c(C(N)=O)ncn2c1=O [temozolomide],Survival rate,"[4]; temozolomide (66 mg/kg), Day 0",100%
same,Survival rate,"[4]; temozolomide (66 mg/kg), Day 5",100%
same,Survival rate,"[4]; temozolomide (66 mg/kg), Day 8",100%
same,Survival rate,"[4]; temozolomide (66 mg/kg), Day 11",66%
same,Survival rate,"[4]; temozolomide (66 mg/kg), Day 14",66%
same,Survival rate,"[4]; temozolomide (66 mg/kg), Day 18",66%
same,Survival rate,"[4]; temozolomide (66 mg/kg), Day 21",33%
same,Survival rate,"[4]; temozolomide (66 mg/kg), Day 28",0%
same,Survival rate,"[4]; temozolomide (66 mg/kg), Day 30",0%
same,IC50,"[3]; DBTRG, single agent, cultured 2 days, MTT",1660 µM
same,IC50,[5],> 3200 µM
same,IC50,[6]; [12],831 µM
same,IC50,[7],1200 µM
same,Relative tumor size (fold),"[8]; PO consecutively for 5 days, 66 mg/kg/day",4.3 fold
same,IC50,[9]; [12],1660 µM
